The record followed here is BindingDB's records for patent US20250074895 (Blueprint Medicines, 2025).

In assay [1] the target is Cyclin-dependent kinase 2/G1/S-specific cyclin-E1 (Homo sapiens, UniProt P24941). Put plainly: Biochemical CDK Inhibition Assay. As to the method: (§1) nhibitory effects of the compounds of the disclosure were measured in biochemical assays that measure the enzymatic phosphorylation activity of CDK enzyme in complex of Cyclin proteins phosphorylates 7.5 micromolar fluorescently labelled peptide substrate, 5-FAM-QSPKKG-CONH2, (FL-Peptide 18, Perkin Elmer, 760362) in the presence of adenosine-5′-triphosphate (ATP) and varying concentrations of the test compound in 100 mM 2-[4-(2-hydroxyethyl)piperazin-1-yl]ethanesulfonic acid (HEPES), pH 7.5, 10 mM MgCl2, 0.015% Brij-35, 1 mM dithiothreitol (DTT), 1.0% dimethylsulfoxide (DMSO). Assays were performed at 1.0 mM ATP or at ATP Km of the CDK enzymes in complex with Cyclin proteins. Reactions proceeded until between 10% to 20% total peptides were phosphorylated at room temperature (25° C.) and were terminated with 35 mM 2,2′,2″,2′″-(ethane-1,2-diyldinitrilo)tetraacetic acid (EDTA). Product was detected using the Caliper mobility shift detection method where the phosphorylated peptide (product) and substrate were electrophoretically separated and measured. Percent activity was plotted against log concentration of compound and points to generate an apparent IC50. The following CDK enzymes in complex with different cyclin proteins were used in these assays:CDK1/Cyclin B1, GST-tag (BPS, 40454), 1.5 nM used in the assayCDK2/Cyclin E (Eurofins, 14-475), 1.25 nM used in the assays

Assay [2] addresses Cyclin-dependent kinase/G2/mitotic-specific cyclin- 1 (Homo sapiens, UniProt P06493). Put plainly: Biochemical CDK Inhibition Assay. As to the method:
as §1

Sequence of Cyclin-dependent kinase/G2/mitotic-specific cyclin- 1 (P06493 whole entry): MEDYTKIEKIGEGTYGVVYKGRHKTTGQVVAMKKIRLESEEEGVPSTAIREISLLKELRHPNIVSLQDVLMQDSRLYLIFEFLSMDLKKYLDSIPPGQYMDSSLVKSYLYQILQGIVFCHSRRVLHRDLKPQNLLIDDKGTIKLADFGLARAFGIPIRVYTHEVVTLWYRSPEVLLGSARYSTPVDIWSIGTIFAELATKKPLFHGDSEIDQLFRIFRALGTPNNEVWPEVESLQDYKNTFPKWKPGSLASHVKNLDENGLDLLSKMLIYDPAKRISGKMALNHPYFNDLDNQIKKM
Sequence of Cyclin-dependent kinase/G2/mitotic-specific cyclin- 1 (P14635 whole entry, further chain): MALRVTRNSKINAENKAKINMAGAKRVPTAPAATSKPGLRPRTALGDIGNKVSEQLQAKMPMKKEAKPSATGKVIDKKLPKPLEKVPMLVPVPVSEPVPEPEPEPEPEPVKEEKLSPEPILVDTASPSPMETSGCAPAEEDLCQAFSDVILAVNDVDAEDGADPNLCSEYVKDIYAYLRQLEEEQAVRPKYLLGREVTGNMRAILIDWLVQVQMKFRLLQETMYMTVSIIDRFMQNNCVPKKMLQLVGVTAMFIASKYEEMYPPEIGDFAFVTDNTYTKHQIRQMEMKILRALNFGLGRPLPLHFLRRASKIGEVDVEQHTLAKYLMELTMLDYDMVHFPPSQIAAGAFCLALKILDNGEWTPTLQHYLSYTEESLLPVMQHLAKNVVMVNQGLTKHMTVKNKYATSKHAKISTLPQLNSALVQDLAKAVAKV

As for `CC1(NC(=O)O[C@@H]2CC[C@H](c3cc(Nc4cnc(C#N)cn4)n[nH]3)C2)CC1` [US20250074895, Compound 1], the IC50 (in general, the point on the concentration scale where inhibition reaches its midpoint) in assay [1] is under 10 nM; in assay [2], 300 nM.

As for `CC1(NC(=O)O[C@@H]2CC[C@H](c3cc(Nc4cc(C#N)ccn4)n[nH]3)C2)CC1` [US20250074895, Compound 2], the values for the IC50 in assay [1] and in assay [2] were under 10 nM and under 100 nM, respectively.

Consider `CC1(NC(=O)O[C@@H]2CC[C@H](c3cc(Nc4ccnc(C#N)n4)n[nH]3)C2)CC1` [US20250074895, Compound 3], for which the figures for the IC50 in assay [1] and in assay [2] were under 10 nM and under 100 nM, respectively.

With `Cc1nc(C#N)cnc1Nc1cc([C@H]2CC[C@@H](OC(=O)NC3(C)CC3)C2)[nH]n1` [US20250074895, Compound 4], the half-inhibitory concentration (IC50) in assay [1] was under 10 nM; in assay [2], over 500 nM.

Turning to `CC1(NC(=O)O[C@@H]2CC[C@H](c3cc(Nc4cc(C#N)cnn4)n[nH]3)C2)CC1` [US20250074895, Compound 5], the half-inhibitory concentration (IC50) in assay [1] is under 10 nM; in assay [2] it was 300 nM.

For the compound `Cc1nccnc1Nc1cc([C@H]2CC[C@@H](OC(=O)NC3(C)CC3)C2)[nH]n1` [US20250074895, Compound 6], the IC50 in assay [1] is under 10 nM; in assay [2] it was over 500 nM.

Consider `Cc1cncc(Nc2cc([C@H]3CC[C@@H](OC(=O)NC4(C)CC4)C3)[nH]n2)n1` [US20250074895, Compound 7], for which the IC50 in assay [1] is under 10 nM; in assay [2], under 100 nM.

For `CC1(NC(=O)O[C@@H]2CC[C@H](c3cc(Nc4cnc(OC(F)F)cn4)n[nH]3)C2)CC1` [US20250074895, Compound 8], the IC50 is under 10 nM in assay [1] and 300 nM in assay [2].

As to `Cc1nc(Nc2cc([C@H]3CC[C@@H](OC(=O)NC4(C)CC4)C3)[nH]n2)cnc1C#N` [US20250074895, Compound 9], the IC50 is under 10 nM in assay [1] and under 100 nM in assay [2].

With `CC1(NC(=O)O[C@@H]2CC[C@H](c3cc(Nc4ccnc(C(F)(F)F)n4)n[nH]3)C2)CC1` [US20250074895, Compound 10], the concentration for half-maximal inhibition (IC50) in assay [1] is under 10 nM; in assay [2] it was under 100 nM.

As for `CC1(NC(=O)O[C@@H]2CC[C@H](c3cc(Nc4cncc(C#N)n4)n[nH]3)C2)CC1` [US20250074895, Compound 11], the values for the IC50 in assay [1] and in assay [2] were under 10 nM and under 100 nM, respectively.

Take `CC1(NC(=O)O[C@@H]2CC[C@H](c3cc(Nc4ccc(C#N)cn4)n[nH]3)C2)CC1` [US20250074895, Compound 12]: the IC50 in assay [1] is under 10 nM; in assay [2], 300 nM.

As for `CC1(NC(=O)O[C@@H]2CC[C@H](c3cc(Nc4ccccn4)n[nH]3)C2)CC1` [US20250074895, Compound 13], the IC50 is 15 nM in assay [1] and over 500 nM in assay [2].

On to `Cc1c(C#N)ccnc1Nc1cc([C@H]2CC[C@@H](OC(=O)NC3(C)CC3)C2)[nH]n1` [US20250074895, Compound 14], for which the IC50 in assay [1] is under 10 nM; in assay [2], over 500 nM.

On to `Cc1cc(C#N)cc(Nc2cc([C@H]3CC[C@@H](OC(=O)NC4(C)CC4)C3)[nH]n2)n1` [US20250074895, Compound 15], for which the IC50 is under 10 nM in assay [1] and under 100 nM in assay [2].

In the case of `CC1(NC(=O)O[C@@H]2CC[C@H](c3cc(Nc4cc(C#N)ncn4)n[nH]3)C2)CC1` [US20250074895, Compound 16], the IC50 in assay [1] is under 10 nM; in assay [2] it was under 100 nM.

As to `CC1(NC(=O)O[C@@H]2CC[C@H](c3cc(Nc4cnc(C(C)(C)O)cn4)n[nH]3)C2)CC1` [US20250074895, Compound 17], the IC50 in assay [1] was under 10 nM; in assay [2] it was 300 nM.

With `CC1(NC(=O)O[C@@H]2CC[C@H](c3cc(Nc4ccc(C#N)nn4)n[nH]3)C2)CC1` [US20250074895, Compound 18], the IC50 is 15 nM in assay [1] and over 500 nM in assay [2].

On to `Cc1cnc(C#N)nc1Nc1cc([C@H]2CC[C@@H](OC(=O)NC3(C)CC3)C2)[nH]n1` [US20250074895, Compound 19], for which the IC50 was under 10 nM in assay [1] and 300 nM in assay [2].

For the compound `Cc1cc(C#N)cnc1Nc1cc([C@H]2CC[C@@H](OC(=O)NC3(C)CC3)C2)[nH]n1` [US20250074895, Compound 20], the IC50 is under 10 nM in assay [1] and over 500 nM in assay [2].

Consider `C[C@H](O)c1cnc(Nc2cc([C@H]3CC[C@@H](OC(=O)NC4(C)CC4)C3)[nH]n2)cn1` [US20250074895, Compound 21], for which the IC50 is under 10 nM in assay [1] and 300 nM in assay [2].

On to `C[C@@H](O)c1cnc(Nc2cc([C@H]3CC[C@@H](OC(=O)NC4(C)CC4)C3)[nH]n2)cn1` [US20250074895, Compound 22], for which the IC50 in assay [1] was under 10 nM; in assay [2], 300 nM.

For the compound `CNc1nncc(Nc2cc([C@H]3CC[C@@H](OC(=O)NC4(C)CC4)C3)[nH]n2)n1` [US20250074895, Compound 23], the IC50 in assay [1] is under 10 nM; in assay [2] it was under 100 nM.

`COc1cncc(Nc2cc([C@H]3CC[C@@H](OC(=O)NC4(C)CC4)C3)[nH]n2)n1` [US20250074895, Compound 24]: the IC50 in assay [1] was under 10 nM; in assay [2], 300 nM.

Turning to `COc1nccc(Nc2cc([C@H]3CC[C@@H](OC(=O)NC4(C)CC4)C3)[nH]n2)n1` [US20250074895, Compound 25], the results for the IC50 in assay [1] and in assay [2] were under 10 nM and 300 nM, respectively.

`CC1(NC(=O)O[C@@H]2CC[C@H](c3cc(Nc4cnccn4)n[nH]3)C2)CC1` [US20250074895, Compound 26]: the IC50 in assay [1] was under 10 nM; in assay [2] it was 300 nM.

As for `Cc1cnc(Nc2cc([C@H]3CC[C@@H](OC(=O)NC4(C)CC4)C3)[nH]n2)cn1` [US20250074895, Compound 27], the IC50 was under 10 nM in assay [1] and 300 nM in assay [2].

In the case of `COc1cnc(Nc2cc([C@H]3CC[C@@H](OC(=O)NC4(C)CC4)C3)[nH]n2)cn1` [US20250074895, Compound 28], the results for the 50% inhibitory concentration (IC50) in assay [1] and in assay [2] were under 10 nM and 300 nM, respectively.

For `CC1(NC(=O)O[C@@H]2CC[C@H](c3cc(Nc4cncc(C5CC5)n4)n[nH]3)C2)CC1` [US20250074895, Compound 29], the IC50 is under 10 nM in assay [1] and under 100 nM in assay [2].

In the case of `CC1(NC(=O)O[C@@H]2CC[C@H](c3cc(Nc4cnc(C(F)(F)F)cn4)n[nH]3)C2)CC1` [US20250074895, Compound 30], the IC50 was under 10 nM in assay [1] and 300 nM in assay [2].

As for `CC1(NC(=O)O[C@@H]2CC[C@H](c3cc(Nc4cnc(F)cn4)n[nH]3)C2)CC1` [US20250074895, Compound 31], the values for the IC50 in assay [1] and in assay [2] were under 10 nM and under 100 nM, respectively.

On to `CN(C)c1cnc(Nc2cc([C@H]3CC[C@@H](OC(=O)NC4(C)CC4)C3)[nH]n2)cn1` [US20250074895, Compound 32], for which the IC50 was under 10 nM in assay [1] and over 500 nM in assay [2].

`CC1(NC(=O)O[C@@H]2CC[C@H](c3cc(Nc4ccnc(C(F)F)n4)n[nH]3)C2)CC1` [US20250074895, Compound 33]: the IC50 was under 10 nM in assay [1] and under 100 nM in assay [2].

As to `Cc1nccc(Nc2cc([C@H]3CC[C@@H](OC(=O)NC4(C)CC4)C3)[nH]n2)n1` [US20250074895, Compound 34], the IC50 in assay [1] is under 10 nM; in assay [2] it was 300 nM.

Regarding `CC1(NC(=O)O[C@@H]2CC[C@H](c3cc(Nc4cnc(S(C)(=O)=O)cn4)n[nH]3)C2)CC1` [US20250074895, Compound 35], the IC50 in assay [1] is under 10 nM; in assay [2], over 500 nM.
